Test results: patent US8778985B2, “Inhibiting amyloid-beta peptide/rage interaction at the blood-brain barrier” (The University of Rochester, priority 2006, dated 2014)

Tests used:
[1] = test system: APPsw+/− mice; assay: Thioflavin S-positive amyloid load in brain, chronic treatment of APPsw+/− mice; assay type: in vivo; details: 1 mg/kg per day i.p. for two months
Description: Amyloid load hippocampus and cortex of APPsw^+/− mice treated with vehicle (open bars) or FPS2 (closed bars). FPS2 (1 mg/kg per day), was administered intraperitoneally to mice for two months beginning at the age of 8 months. Values are means±s.e.m, n=5-6 per group.
(§1) In the chronic-treated mice, Aβ40 and Aβ42 levels in the hippocampus were reduced by about 85% and 90%, respectively, in the FPS2-treated mice compared to vehicle (FIG. 6A). Similarly, Aβ40 and Aβ42 levels in the cortex were reduced by about 70% and 80%, respectively (FIG. 6B).
Compounds were synthesized in parallel using semiautomated chemical reactions. […] Purity was assessed by reverse-phase gradient HPLC. […] After two months of treatment, (i) the cerebral blood flow response to brain activation (whisker stimulation) was measured and (ii) behavioral tests including operant learning, novel object location (NOL), and novel object recognition (NOR) were performed. After these functional tests, the mice were sacrificed and their brains analyzed for Aβ40, Aβ42, and amyloid levels. • CBF response to brain activation. The CBF response to vibrissal stimulation in anesthetized APPsw^+/− mice was measured by using laser-doppler flowmetry (Transonic Systems, BLF 21 D). […] The time exploring the novel and familiar objects was scored by hand to provide discrimination. • Human Aβ40 and Aβ42. […]

[2] = molecular target: T1, RAGE (Homo sapiens, UniProt Q15109); assay: 125I-Aβ40 specific binding on RAGE-transfected CHO cells at 4° C., competitive inhibition
T1 construct: expressed in transfected cells; host or cells: Chinese hamster ovary (CHO) cells
Source text: Data are mean±s.e.m., n=3 per group.
All three are tertiary amides substituted with a large, hydrophobic hydrocarbon moiety and a monosubstituted aromatic moiety. Linkage to the monosubstituted aromatic is either direct (FPS2) or via an alkyl (FPS1) or heteroaromatic (FPS3) spacer. Two of the compounds also feature a highly electron-poor substituted benzene ring (3-nitro, 4-chloro for FPS1; 3,5-dinitro for FPS2).

[3] = test system: APPsw+/− mice; assay: Human Aβ40 and Aβ42 levels in hippocampus and cortex by ELISA, chronic treatment of APPsw+/− mice; assay type: in vivo; details: 1 mg/kg per day i.p. for two months
Description: A-B, Aβ40 and Aβ42 levels in hippocampus (A) cortex (B) of APPsw^+/− mice treated with vehicle (filled square) or FPS2 (filled triangle). FPS2 (1 mg/kg per day) was administered intraperitoneally to mice for two months beginning at the age of 8 months. Values are means±s.e.m, n=5-6 per group.
as §1
Compounds were synthesized in parallel using semiautomated chemical reactions. Five commercially-available aromatic aldehydes were condensed in reductive amination reactions with five hydrophobic amines to form 25 secondary amines. Parallel acylation of these 25 secondary amines with five aromatic acyl chlorides provided the final 125-compound library of tertiary amides. The identity of compounds was verified by mass spectrometry (FIG. 9). Purity was assessed by reverse-phase gradient HPLC. Library members isolated with purity <95% were subjected to preparative HPLC purification prior to assay. • Animals. APPsw^+/− (Tg2576) mice were from Taconic Farms (Germantown, N.Y.). Mice were housed under standard conditions (12 hour light/dark cycle starting at 07:00 AM; 21±2° C.; 55±10% humidity) in solid-bottom cages on woodchip bedding. Mice were anesthetized by intraperitoneal injection with urethane (750 mg/kg) and α-chloralose (50 mg/kg). All procedures on mice were performed according to the NIH guidelines, which were approved by the University of Rochester's Committee on Animal Resources. • FPS2 chronic treatment of APPsw^+/− mice. APPsw^+/− mice (n=5-6 per group) were treated intraperitoneally with FPS2 (1 mg/kg per day) or saline for two months beginning at the age of 8 months. After two months of treatment, (i) the cerebral blood flow response to brain activation (whisker stimulation) was measured and (ii) behavioral tests including operant learning, novel object location (NOL), and novel object recognition (NOR) were performed. After these functional tests, the mice were sacrificed and their brains analyzed for Aβ40, Aβ42, and amyloid levels. • CBF response to brain activation. The CBF response to vibrissal stimulation in anesthetized APPsw^+/− mice was measured by using laser-doppler flowmetry (Transonic Systems, BLF 21 D). The tip of the laser-doppler probe was stereotaxically placed 0.5 mm above the dura of the cranial window. The right vibrissae were cut to about 5 mm and stimulated by gentle stroking at 3-4 Hz, for 1 min with a cotton-tip applicator. […] The time exploring the novel and familiar objects was scored by hand to provide discrimination. • Human Aβ40 and Aβ42. […]

T1 sequence (Q15109 23-404): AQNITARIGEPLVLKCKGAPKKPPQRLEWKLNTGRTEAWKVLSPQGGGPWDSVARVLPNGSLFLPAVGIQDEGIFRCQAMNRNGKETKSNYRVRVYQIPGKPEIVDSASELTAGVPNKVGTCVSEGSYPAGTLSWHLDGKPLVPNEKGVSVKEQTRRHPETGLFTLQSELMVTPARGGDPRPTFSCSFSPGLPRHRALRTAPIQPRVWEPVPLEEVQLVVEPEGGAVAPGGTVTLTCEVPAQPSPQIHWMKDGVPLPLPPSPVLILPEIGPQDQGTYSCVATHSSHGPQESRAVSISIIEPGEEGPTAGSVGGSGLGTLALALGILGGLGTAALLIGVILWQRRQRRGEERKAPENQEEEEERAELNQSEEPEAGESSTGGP

## CC(CC(=O)NCCCN(C(=O)c1cc([N+](=O)[O-])cc([N+](=O)[O-])c1)c1ccccc1)CC(C)(C)C (centres unmarked) [FPS2, 3,5-dinitro-N-phenyl-N-[3-[(3,5,5-trimethyl-1-oxohexyl)amino]propyl]-(9Cl)-benzamide]
[1]
  reduction of thioflavin-S positive areas (amyloid load) in the cortex compared to vehicle: about 85%
  reduction of thioflavin-S positive areas (amyloid load) in the hippocampus compared to vehicle: about 85%
[2]
  Ki/Kd ratio (Ki compound's inhibitory constant, Kd Aβ-RAGE binding constant): 0.45
[2]; competitive
  inhibitory constant (Ki) of Aβ-RAGE binding: low
[3]
  reduction of Aβ40 level in the cortex compared to vehicle: about 70%
  reduction of Aβ40 level in the hippocampus compared to vehicle: about 85%
  reduction of Aβ42 level in the cortex compared to vehicle: ~80%
  reduction of Aβ42 level in the hippocampus compared to vehicle: ~90%
